Test results from publication PMC11200018 (2024).

Assays:
[1] = system: TelQD31 (DNA, G4) GGGCGCGAAGCATTCGCGGGGTTAGGGTGGG; assay: NMR titration; settings: 120 mM K+; 120 mM K+ buffer, pH 7.0; binding at quadruplex-duplex junction
[2] = system: TelQD (DNA, G4) GGGCGCGAAGCATTCGCGGGGTTAGGGTTAGGG; assay: NMR solution structure; settings: 120 mM K+; 20 mM potassium phosphate, 100 mM KCl, pH 7.0, 25 °C; refolds to (3+1) hybrid-2
[3] = system: 32BrTelQD (DNA, G4, 8-bromo-2'-deoxyguanosine at 32) GGGCGCGAAGCATTCGCGGGGTTAGGGTTAGGG; assay: NMR titration and induced CD; settings: 120 mM K+; 120 mM K+ buffer, pH 7.0; incomplete refolding, polymorphic complex

binding [1]: yes
binding [2]: yes
binding [3]: yes
SMILES: C[n+]1cc(NC(=O)c2ccc3ccc4ccc(C(=O)Nc5cc6ccccc6[n+](C)c5)nc4c3n2)cc2ccccc21
